What was measured:
(His)6-SOX11-DBD protein = target: T1, (His)6-SOX11-DBD protein (Homo sapiens, UniProt P35716); test: Surface Plasmon Resonance (SPR) assay; format: binding; settings: immobilized recombinant (His)6-SOX11-DBD, 25° C., compounds 5-40 μM, mean of three experiments
T1 construct: Recombinant (His)6-SOX11-DBD protein was immobilized
T1 sequence (P35716 49-117 limits assumed): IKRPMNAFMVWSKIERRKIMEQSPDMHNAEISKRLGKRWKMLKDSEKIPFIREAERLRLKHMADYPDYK

Jeko-1 (SOX11+) = test: Cell viability assay (CellTiter-Blue resazurin reduction); format: cell-based; settings: JeKo-1 cells; for IC50: 0-40 μM
Method in brief: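 Cells were exposed to compound for 72 h, then resazurin reduction (CellTiter-Blue, 2 h) was read by fluorescence and converted to viable cell number via a standard curve. Viability was normalised to 0.2% DMSO-treated cells. IC50 came from a sigmoidal dose-response fit, three separate experiments.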

[1] = Homo sapiens, JeKo-1, 72 h, 20 μM compound, normalized to 0.2% DMSO

CC1Oc2ccc(C(=O)Nc3ccc(S(=O)(=O)Nc4ccccc4)cc3)cc2NC1=O (stereo not drawn)
Kd ((His)6-SOX11-DBD protein): 15.3 µM | IC50 (Jeko-1 (SOX11+); Homo sapiens, JeKo-1, 72 h): 12 µM | viability at 20 µM (Jeko-1 (SOX11+); [1]): 9.09%

CC1Sc2ccc(C(=O)Nc3ccc(S(=O)(=O)Nc4ccc(Cl)cc4)cc3)cc2NC1=O (stereo not drawn)
Kd ((His)6-SOX11-DBD protein): 0.861 µM | IC50 (Jeko-1 (SOX11+); Homo sapiens, JeKo-1, 72 h): 15 µM | viability at 20 µM (Jeko-1 (SOX11+); [1]): 9.99%

Cc1ccc(NS(=O)(=O)c2ccc(NC(=O)c3ccc4c(c3)NC(=O)C(C)S4)cc2)cc1 (stereo not drawn)
Kd ((His)6-SOX11-DBD protein): 12.4 µM | IC50 (Jeko-1 (SOX11+); Homo sapiens, JeKo-1, 72 h): 10 µM | viability at 20 µM (Jeko-1 (SOX11+); [1]): 0.51%

Cc1ccccc1NS(=O)(=O)c1ccc(NC(=O)c2ccc3c(c2)NC(=O)C(C)S3)cc1 (stereo not drawn)
Kd ((His)6-SOX11-DBD protein): 14.1 µM | IC50 (Jeko-1 (SOX11+); Homo sapiens, JeKo-1, 72 h): 10 µM | viability at 20 µM (Jeko-1 (SOX11+); [1]): 9.87%

Cc1cccc(NS(=O)(=O)c2ccc(NC(=O)c3ccc4c(c3)NC(=O)C(C)S4)cc2)c1 (stereo not drawn)
Kd ((His)6-SOX11-DBD protein): 1.16 µM | IC50 (Jeko-1 (SOX11+); Homo sapiens, JeKo-1, 72 h): 11 µM | viability at 20 µM (Jeko-1 (SOX11+); [1]): 0.58%

CC1Sc2ccc(C(=O)Nc3ccc(S(=O)(=O)Nc4cccc(F)c4)cc3)cc2NC1=O (stereo not drawn)
Kd ((His)6-SOX11-DBD protein): 1.26 µM | IC50 (Jeko-1 (SOX11+); Homo sapiens, JeKo-1, 72 h): < 20 µM | viability at 20 µM (Jeko-1 (SOX11+); [1]): 28.2%

CC1Sc2ccc(C(=O)Nc3ccc(S(=O)(=O)Nc4ccc(F)cc4)cc3)cc2NC1=O (stereo not drawn)
Kd ((His)6-SOX11-DBD protein): 15.9 µM | IC50 (Jeko-1 (SOX11+); Homo sapiens, JeKo-1, 72 h): > 20 µM | viability at 20 µM (Jeko-1 (SOX11+); [1]): 80.1%

CC1Sc2ccc(C(=O)Nc3ccc(S(N)(=O)=O)cc3)cc2NC1=O (stereo not drawn)
Kd ((His)6-SOX11-DBD protein): 83.3 µM | IC50 (Jeko-1 (SOX11+); Homo sapiens, JeKo-1, 72 h): > 20 µM | viability at 20 µM (Jeko-1 (SOX11+); [1]): 101%

CC1Sc2ccc(C(=O)Nc3ccc(S(C)(=O)=O)cc3)cc2NC1=O (stereo not drawn)
Kd ((His)6-SOX11-DBD protein): 7.13 µM | IC50 (Jeko-1 (SOX11+); Homo sapiens, JeKo-1, 72 h): 15 µM | viability at 20 µM (Jeko-1 (SOX11+); [1]): 30.6%

CC1Sc2ccc(C(=O)Nc3ccc(S(=O)(=O)N4CCCCC4)cc3)cc2NC1=O (stereo not drawn)
Kd ((His)6-SOX11-DBD protein): 3.63 µM | IC50 (Jeko-1 (SOX11+); Homo sapiens, JeKo-1, 72 h): 8 µM | viability at 20 µM (Jeko-1 (SOX11+); [1]): 7.38%

CC1Sc2ccc(C(=O)Nc3ccc(S(=O)(=O)N4CCCC4)cc3)cc2NC1=O (stereo not drawn)
Kd ((His)6-SOX11-DBD protein): 138 µM | IC50 (Jeko-1 (SOX11+); Homo sapiens, JeKo-1, 72 h): 8.5 µM | viability at 20 µM (Jeko-1 (SOX11+); [1]): 2.97%

CC1Sc2ccc(C(=O)Nc3ccc(S(=O)(=O)N(C)C)cc3)cc2NC1=O (stereo not drawn)
Kd ((His)6-SOX11-DBD protein): 15.4 µM | IC50 (Jeko-1 (SOX11+); Homo sapiens, JeKo-1, 72 h): 15 µM | viability at 20 µM (Jeko-1 (SOX11+); [1]): 19.6%

CCN(CC)S(=O)(=O)c1ccc(NC(=O)c2ccc3c(c2)NC(=O)C(C)S3)cc1 (stereo not drawn)
Kd ((His)6-SOX11-DBD protein): 30.9 µM | IC50 (Jeko-1 (SOX11+); Homo sapiens, JeKo-1, 72 h): 7.5 µM | viability at 20 µM (Jeko-1 (SOX11+); [1]): 0.6%

CC1Sc2ccc(C(=O)Nc3ccc(S(=O)(=O)Nc4ccccn4)cc3)cc2NC1=O (stereo not drawn)
Kd ((His)6-SOX11-DBD protein): 130 µM | IC50 (Jeko-1 (SOX11+); Homo sapiens, JeKo-1, 72 h): > 20 µM | viability at 20 µM (Jeko-1 (SOX11+); [1]): 96.4%

CC1Sc2ccc(C(=O)Nc3ccc(S(=O)(=O)Nc4cccnc4)cc3)cc2NC1=O (stereo not drawn)
Kd ((His)6-SOX11-DBD protein): 7.23 µM | IC50 (Jeko-1 (SOX11+); Homo sapiens, JeKo-1, 72 h): > 20 µM | viability at 20 µM (Jeko-1 (SOX11+); [1]): 92%

CC1Sc2ccc(C(=O)Nc3ccc(S(=O)(=O)NC4CC4)cc3)cc2NC1=O (stereo not drawn)
Kd ((His)6-SOX11-DBD protein): 18.9 µM | IC50 (Jeko-1 (SOX11+); Homo sapiens, JeKo-1, 72 h): 7 µM | viability at 20 µM (Jeko-1 (SOX11+); [1]): 14.9%

CC1Sc2ccc(C(=O)Nc3ccc(S(=O)(=O)N(C)C(C)C)cc3)cc2NC1=O (stereo not drawn)
Kd ((His)6-SOX11-DBD protein): 38.9 µM | IC50 (Jeko-1 (SOX11+); Homo sapiens, JeKo-1, 72 h): 8 µM | viability at 20 µM (Jeko-1 (SOX11+); [1]): 0.92%

CC(C)NS(=O)(=O)c1ccc(NC(=O)c2ccc3c(c2)NC(=O)C(C)S3)cc1 (stereo not drawn)
Kd ((His)6-SOX11-DBD protein): 9.79 µM | IC50 (Jeko-1 (SOX11+); Homo sapiens, JeKo-1, 72 h): 8 µM | viability at 20 µM (Jeko-1 (SOX11+); [1]): 20.3%

CC1Sc2ccc(C(=O)Nc3ccc(S(=O)(=O)N4CCCCCC4)cc3)cc2NC1=O (stereo not drawn)
Kd ((His)6-SOX11-DBD protein): 2.63 µM | IC50 (Jeko-1 (SOX11+); Homo sapiens, JeKo-1, 72 h): 7.5 µM | viability at 20 µM (Jeko-1 (SOX11+); [1]): 0.46%

CC1Sc2ccc(C(=O)Nc3cccc(S(=O)(=O)Nc4ccccc4)c3)cc2NC1=O (stereo not drawn)
Kd ((His)6-SOX11-DBD protein): 18.6 µM | IC50 (Jeko-1 (SOX11+); Homo sapiens, JeKo-1, 72 h): 10 µM | viability at 20 µM (Jeko-1 (SOX11+); [1]): 2.81%

CC1Sc2ccc(C(=O)Nc3cccc(S(=O)(=O)N4CCCCC4)c3)cc2NC1=O (stereo not drawn)
Kd ((His)6-SOX11-DBD protein): 41.5 µM | IC50 (Jeko-1 (SOX11+); Homo sapiens, JeKo-1, 72 h): 10 µM | viability at 20 µM (Jeko-1 (SOX11+); [1]): 0.6%

CC1Sc2ccc(C(=O)Nc3cccc(S(=O)(=O)N(C)C)c3)cc2NC1=O (stereo not drawn)
Kd ((His)6-SOX11-DBD protein): 69.5 µM | IC50 (Jeko-1 (SOX11+); Homo sapiens, JeKo-1, 72 h): 8.5 µM | viability at 20 µM (Jeko-1 (SOX11+); [1]): 1.43%

CCN(CC)S(=O)(=O)c1cccc(NC(=O)c2ccc3c(c2)NC(=O)C(C)S3)c1 (stereo not drawn)
Kd ((His)6-SOX11-DBD protein): 31.2 µM | IC50 (Jeko-1 (SOX11+); Homo sapiens, JeKo-1, 72 h): 8 µM | viability at 20 µM (Jeko-1 (SOX11+); [1]): 0.44%

CC1Sc2ccc(C(=O)Nc3ncc(S(=O)(=O)Nc4ccccc4)s3)cc2NC1=O (stereo not drawn)
Kd ((His)6-SOX11-DBD protein): 3.12 µM | IC50 (Jeko-1 (SOX11+); Homo sapiens, JeKo-1, 72 h): > 20 µM | viability at 20 µM (Jeko-1 (SOX11+); [1]): 88%

CC1Sc2ccc(C(=O)Nc3ccc(S(=O)(=O)Nc4ccccc4)c(Cl)c3)cc2NC1=O (stereo not drawn)
Kd ((His)6-SOX11-DBD protein): 4.36 µM | IC50 (Jeko-1 (SOX11+); Homo sapiens, JeKo-1, 72 h): 5 µM | viability at 20 µM (Jeko-1 (SOX11+); [1]): 1.8%

CC1Sc2ccc(C(=O)Nc3ccc(S(=O)(=O)Nc4ccccc4)cc3Cl)cc2NC1=O (stereo not drawn)
Kd ((His)6-SOX11-DBD protein): 3.1 µM | IC50 (Jeko-1 (SOX11+); Homo sapiens, JeKo-1, 72 h): < 20 µM | viability at 20 µM (Jeko-1 (SOX11+); [1]): 36.2%

Cc1cc(NC(=O)c2ccc3c(c2)NC(=O)C(C)S3)ccc1S(=O)(=O)Nc1ccccc1 (stereo not drawn)
Kd ((His)6-SOX11-DBD protein): 2.5 µM | IC50 (Jeko-1 (SOX11+); Homo sapiens, JeKo-1, 72 h): 10 µM | viability at 20 µM (Jeko-1 (SOX11+); [1]): 1.22%

CCC1Sc2ccc(C(=O)Nc3ccc(S(=O)(=O)Nc4ccccc4)cc3)cc2NC1=O (stereo not drawn)
Kd ((His)6-SOX11-DBD protein): 1.43 µM | IC50 (Jeko-1 (SOX11+); Homo sapiens, JeKo-1, 72 h): 12 µM | viability at 20 µM (Jeko-1 (SOX11+); [1]): 36.7%

CN(c1ccccc1)S(=O)(=O)c1ccc(NC(=O)c2ccc3nncn3c2)cc1
Kd ((His)6-SOX11-DBD protein): 4.07 µM | IC50 (Jeko-1 (SOX11+); Homo sapiens, JeKo-1, 72 h): > 20 µM | viability at 20 µM (Jeko-1 (SOX11+); [1]): 126%

O=C(Nc1ccc2cccnc2c1)c1ccc(OCc2ccccc2)cc1
Kd ((His)6-SOX11-DBD protein): 3.58 µM | IC50 (Jeko-1 (SOX11+); Homo sapiens, JeKo-1, 72 h): 8 µM | viability at 20 µM (Jeko-1 (SOX11+); [1]): 22.8%

CN1C(=O)COc2ccc(C(=O)Nc3ccc(S(=O)(=O)N4CCCCC4)cc3)cc21
Kd ((His)6-SOX11-DBD protein): 5.35 µM | IC50 (Jeko-1 (SOX11+); Homo sapiens, JeKo-1, 72 h): > 20 µM | viability at 20 µM (Jeko-1 (SOX11+); [1]): 90.6%

CN1C(=O)CSc2ccc(C(=O)Nc3ccc(CN4CCCCCC4)cc3)cc21
Kd ((His)6-SOX11-DBD protein): 6.93 µM | IC50 (Jeko-1 (SOX11+); Homo sapiens, JeKo-1, 72 h): > 20 µM | viability at 20 µM (Jeko-1 (SOX11+); [1]): 102%

CC1Sc2ccc(C(=O)Nc3ccc(S(=O)(=O)Nc4ccccc4)cc3)cc2NC1=O (stereo not drawn) [drawing 468]
Kd ((His)6-SOX11-DBD protein): 38 µM | Jeko-1 Viability at 20 μM (%) (Jeko-1 (SOX11+); 20 μM compound, 72 hours, normalized to 0.2% DMSO, 20 µM): 0.83% | IC50 (Jeko-1 (SOX11+); 72 hours): 12.5 µM

From patent US20230242496A1, “SOX11 INHIBITORS FOR TREATING MANTLE CELL LYMPHOMA” (Icahn School of Medicine At Mount Sinai, priority 2020, published 2023)
